Data from paper PMC8456950, “Structure‐Guided Design of G‐Protein‐Coupled Receptor Polypharmacology” (Angewandte Chemie (International Ed. in English), 2021).
Entries after “also recorded” stand apart in the source; their conditions may differ.

Experiments:
[1] = system: unilaterally 6-OHDA lesioned rats; experiment: Rotation test in unilaterally 6-OHDA lesioned rats (model of Parkinsonism); format: in vivo
Description: Evaluation of compound 30 in rodent model of Parkinsonism. Male Sprague Dawley rats (150-200 g) were housed in air-conditioned rooms (12h dark/light cycle) at 20°C and a humidity of 53%. Experiments were performed in agreement with the European Communities Council Directive of 24 November 1986 (86/609/EEC) on the ethical use of animals and were approved by the local ethical committee (Stockholm North Ethical Committee, N105/16). Rats were anesthetized with ketamine (100 mg/kg, IP; Intervet)/xylazine (5 mg/kg, IP; Bayer, Kiel, Germany), pretreated with desipramine (25 mg/kg, IP; Sigma, St Louis, MO, USA)/pargyline (5 mg/kg, IP; Sigma), placed in a stereotaxi c instrument and injected with 6-OHDA (2.5 µl of a 5mg/ml solution; Sigma) into the median forebrain bundle (MFB) of the right hemisphere (AP -2.8 mm, ML -2.0 mm and V -9.0 mm). Two weeks after the unilateral 6-OHDA lesion, rats were injected with apomorphine (1 mg/kg, IP; Sigma) and their contralateral rotations were measured to determine the degree of nigrostriatal denervation. Four weeks after surgery, rats that were divided into two group according to the number of apomorphine-induced rotations. The rats were treated either with DMSO(17%)/saline (n=6) or compound 30 (n=7, 24 mg/kg, IP) dissolved in DMSO(17%)/saline. The number of rotations was calculated automatically with Noldus EthoVision XT11. 5 Software for 30 min following the drug administration. The two […]
groups were then compared by using a Mann-Whitney test. A second set of independent experiments using a new set of rats were carried out using the same protocol to assess the involvement of the D2R in the observed effect. In this case, rats were divided into four groups according to the number of apomorphine-induced rotations. The rats were treated with either DMSO(17%)/saline (n=6), raclopride (n=7, 2mg/kg, IP) dissolved in DMSO(17%)/saline, compound 30 (n=7, 24 mg/kg, IP) dissolved in DMSO(17%)/saline or the combination of raclopride (30 min pretreatment) and compound 30 (n=7). The rotation test was then performed for 30 min. […]

[2] = Blood-brain distribution in rats; format: in vivo; conditions: male, Sprague Dawley, rat, 24 mg kg^−1 IP
Description: Blood-brain distribution. Measurements of blood-brain distribution in rats were performed by Admescope (Finland). The male Sprague Dawley rats (120-157 g) were housed in air-conditioned rooms (12h dark/light cycle) at 22 °C and a humidity of 55%. Animals were allowed to acclimatize to the site for at least five days prior to the study.
Compound 30 (24 mg/kg, formulated in 17% DMSO in saline) was administered intraperitoneally and blood samples were collected at 10, 30, and 50 min after dosing. Within 30 min following the sampling, the blood was centrifuged for plasma separation (room temperature; 10 min; 2700 G). The plasma samples were transferred into plastic tubes, frozen and stored at –20 °C until analysis. Brains were perfused under terminal isoflurane anaesthesia at 10, 30 and 50 min after dosing (n=6 per time point). For the perfusion, the heart of the rat was expo sed and major veins leading to the right atrium were severed. […]
Evaluation of compound 30 in rodent model of Parkinsonism. […] Two weeks after the unilateral 6-OHDA lesion, rats were injected with apomorphine (1 mg/kg, IP; Sigma) and their contralateral rotations were measured to determine the degree of nigrostriatal denervation. […] The number of rotations was calculated automatically with Noldus EthoVision XT11. […]

concentration at 30 min ([2]; brain, at 30 min, read-out: total concentration in the brain): ~3000 nM
Kp at 0.5 h ([2]; brain/plasma, peak after 30 min, mean±SD, read-out: brain-to-plasma ratio): 0.79 ± 0.13
Structure (SMILES): CCCN(CCCCC(=O)Nc1nc2c(OC)ccc(OC)c2s1)C1Cc2ccccc2C1 [Compound 30]
contralateral rotations (net rotations, 30 min) versus control group ([1]; 24 mg kg^−1 IP, 6-OHDA lesioned rats, p<0.01 first set, p<0.05 independent second set): significantly higher number of contralateral rotations; also recorded: significant increase of contralateral rotations
effect on contralateral rotations in combination with D2 antagonist raclopride ([1]; 30 at 24 mg kg^−1 IP with raclopride 2 mg kg^−1 IP (30 min pretreatment)): reversed
